Key:
[1] = tested on: creeping bentgrass cv. Penncross; experiment: Turf trial, turfgrass quality and phytotoxicity; conditions: creeping bentgrass plots inoculated with S. homoeocarpa; ratings >6.0 acceptable
Protocol: A fungicide trial was conducted on a 15-yr-old sward of creeping bentgrass cv. Penncross during the spring. The turfgrass was maintained using cultural practices similar to those used in maintenance of bentgrass golf greens in the southern United States. Treatments were arranged as plots (0.5×1.0 m) in a randomized complete block design with four replications. […] All other fungicides were applied according to their labels (Banner MAXX 1.3ME and Insignia 20WG). The turfgrass was inoculated with autoclaved tall fescue seed infested with Sclerotinia homoeocarpa (common name: dollar spot) six hours after application of the initial preventive treatments. The plots received approximately 0.24 inches of irrigation water daily at 1700 hour to ensure nightly foliar wetness for infection. The Horsfall-Barratt rating scale was used to visually estimate disease severity at approximately 7-day intervals from the initial application date. Turfgrass quality was assessed using a 0-9 scale where 0=a necrotic, thin foliar canopy and 9=a dark green, dense foliar canopy. Disease and quality values were subjected to analysis of variance and means were statistically separated using the Scott-Knott cluster analysis procedure.

[2] = tested on: leaf rust (Puccinia recondita: PUCCRT); experiment: Cereal field trial, leaf rust on wheat; type: in vivo; conditions: winter wheat field trial; 9.5% emulsifiable concentrate; 140, 280 and 421 g a.i./ha; low natural incidence
Protocol: (§1) A field trial of Compound 4 was conducted on soft red winter wheat cultivar Sisson. Very dry weather gave rise to a low natural incidence of leaf rust (Puccinia recondita: PUCCRT) late in the trial. Compound 4 was applied as a 9.5% active ingredient (weight/weight) emulsifiable concentrate of the following formula (each weight/weight): 9.5% Compound 4, 9.5% m-Pyrol, 65% Surfadone LP-100, 6% Surfadone LP-300, 5% Toximul 3463F, and 5% Toximul 3464F. Rates of Compound 4 application were as follows (grams active ingredient per hectare: g a.i./ha): 140, 280 and 421.

[3] = tested on: Sclerotinia homoeocarpa (common name: dollar spot); experiment: Turf trial, dollar spot on creeping bentgrass; type: in vivo; conditions: creeping bentgrass plots; Compound 4 as 25% wetable powder at 2.2, 4.4, 8.8 g a.i. per 1000 square feet; mean disease <3.0% acceptable
Excerpt: Penncross during the spring.

[4] = tested on: soft red winter wheat cultivar Sisson; experiment: Cereal field trial, yield; type: in vivo; conditions: highest rate of Compound 4 (421 g a.i./ha)
Protocol: as §1

## OC(c1cccnc1)c1c(-c2ccc(Cl)cc2Cl)noc1-c1cccc(Cl)c1 (stereo not shown) [Compound 4, 5-(3-Chlorophenyl)-3-(2,4-dichlorophenyl)-4-[(3-pyridyl)hydroxymethyl]-isoxazole]
[1]
  Turfgrass quality (0-9 scale): Highest quality ratings
[2]
  Control of leaf rust incidence: good control of the rust incidence
[3]
  Dollar spot disease severity / control (Horsfall-Barratt rating): effective control on dollar spot during most of the trial period
[4]
  Yield enhancement: Yield enhancement was observed

— patent US7998983B2, “Substituted isoxazoles as fungicides” (Syngenta Limited, priority 2004, dated 2011)
